Patent publication US7935670B2, “Hepatitis C virus inhibitors” (Bristol-Myers Squibb Company, priority 2006, dated 2011)
pEC50, pIC50: −log10 of the molar value.

Legend:
[1] = target: T1, HCV NS3/4A protease complex, BMS strain (UniProt P27958, species not given/STRAIN_BMS); test: FRET peptide assay to monitor HCV NS3/4A proteolytic activity (BMS strain); assay type: biochemical, HCV genotype 1a; conditions: NS3/4A BMS strain; read-out: Activity Range (IC50)
T1 construct: given for H77 and J4L6S, not expressly for BMS; fused on or other part: three-lysine solubilising tail at the end of NS4A (given for the H77 and J4L6S constructs)
T1 sequence (P27958 1027-1657, change not shown, one chain of several): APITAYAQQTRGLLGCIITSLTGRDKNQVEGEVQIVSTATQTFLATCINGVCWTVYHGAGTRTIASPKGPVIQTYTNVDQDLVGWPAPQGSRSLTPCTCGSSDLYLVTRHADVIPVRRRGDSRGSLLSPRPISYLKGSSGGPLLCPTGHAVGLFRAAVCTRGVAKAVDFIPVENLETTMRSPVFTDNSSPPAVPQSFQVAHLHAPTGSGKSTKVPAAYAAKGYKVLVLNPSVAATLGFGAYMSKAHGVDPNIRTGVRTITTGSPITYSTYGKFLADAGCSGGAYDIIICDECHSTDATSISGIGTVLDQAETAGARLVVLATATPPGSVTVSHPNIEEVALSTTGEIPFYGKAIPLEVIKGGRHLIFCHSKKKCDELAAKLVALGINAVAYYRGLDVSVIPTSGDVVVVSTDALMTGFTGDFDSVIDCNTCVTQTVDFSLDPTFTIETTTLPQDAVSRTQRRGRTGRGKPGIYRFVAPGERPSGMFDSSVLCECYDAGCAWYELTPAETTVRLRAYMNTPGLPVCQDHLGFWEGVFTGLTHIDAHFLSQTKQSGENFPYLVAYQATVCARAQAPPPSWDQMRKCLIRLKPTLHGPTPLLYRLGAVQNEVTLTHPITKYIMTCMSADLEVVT
From the text: HCV NS3 protease complexes, derived from the BMS strain, H77 strain or J4L6S strain, were generated, as described below. These purified recombinant proteins were generated for use in a homogeneous assay (see below) to provide an indication of how effective compounds of the present disclosure would be in inhibiting HCV NS3 proteolytic activity.
Serum from an HCV-infected patient was obtained from Dr. T. Wright, San Francisco Hospital. An engineered full-length cDNA (compliment deoxyribonucleic acid) template of the HCV genome (BMS strain) was constructed from DNA fragments obtained by reverse transcription-PCR(RT-PCR) of serum RNA (ribonucleic acid) and using primers selected on the basis of homology between other genotype 1a strains. From the determination of the entire genome sequence, a genotype 1a was assigned to the HCV isolate according to the classification of Simmonds et al. (See P Simmonds, K A Rose, S Graham, S W Chan, F McOmish, B C Dow, E A Follett, P L Yap and H Marsden, J. Clin. Microbiol., 31(6), 1493-1503 (1993)). […] The infectious clones, H77 (1a genotype) and J4L6S (1b genotype) were obtained from R. Purcell (NIH) and the sequences are published in Genbank (AAB67036, see Yanagi, M., Purcell, R. H., Emerson, S. U. and Bukh, J. Proc. Natl. Acad. Sci. U.S.A. 94(16), 8738-8743 (1997); AF054247, see Yanagi, M., St Claire, M., Shapiro, M., Emerson, S. U., Purcell, R. H. and Bukh, J, Virology 244 (1), 161-172. (1998)).
NS3/4A protease complex-containing fractions were pooled and loaded on a desalting column Superdex-S200 pre-equilibrated with buffer D (25 mM HEPES, pH 7.5, 20% glycerol, 300 mM NaCl, 0.2% Triton X-100, 10 mM βME). Sample was loaded at a flow rate of 1 mL/min. NS3/4A protease complex-containing fractions were pooled and concentrated to approximately 0.5 mg/ml. The purity of the NS3/4A protease complexes, derived from the BMS, H77 and J4L6S strains, were judged to be greater than 90% by SDS-PAGE and mass spectrometry analyses. The enzyme was stored at −80° C., thawed on ice and diluted prior to use in assay buffer.
The purpose of this in vitro assay was to measure the inhibition of HCV NS3 protease complexes, derived from the BMS strain, H77 strain or J4L6S strain, as described above, by compounds of the present disclosure. This assay provides an indication of how effective compounds of the present disclosure would be in inhibiting HCV NS3 proteolytic activity.
In order to monitor HCV NS3/4A protease activity, an NS3/4A peptide substrate was used. The substrate was RET S1 (Resonance Energy Transfer Depsipeptide Substrate; AnaSpec, Inc. cat #22991)(FRET peptide), described by Taliani et al. in Anal. Biochem. 240(2):60-67 (1996). The sequence of this peptide is loosely based on the NS4A/NS4B natural cleavage site for the HCV NS3 protease except there is an ester linkage rather than an amide bond at the cleavage site. The peptide also contains a fluorescence donor, EDANS, near one end of the peptide and an acceptor, DABCYL, near the other end. The fluorescence of the peptide is quenched by […] resonance energy transfer (RET) between the donor and the acceptor, but as the NS3 protease cleaves the peptide the products are released from RET quenching and the fluorescence of the donor becomes apparent.
The peptide substrate was incubated with one of the three recombinant NS3/4A protease complexes, in the absence or presence of a compound of the present disclosure. The inhibitory effects of a compound were determined by monitoring the formation of fluorescent reaction product in real time using a Cytofluor Series 4000.
Assay buffer: 50 mM HEPES, pH 7.5; 0.15 M NaCl; 0.1% Triton; 15% Glycerol; 10 mM βME. Substrate: 2 μM final concentration (from a 2 mM stock solution in DMSO stored at −20° C.). HCV NS3/4A protease type 1a (1b), 2-3 nM final concentration (from a 5 μM stock solution in 25 mM HEPES, pH 7.5, 20% glycerol, 300 mM NaCl, 0.2% Triton-X100, 10 mM βME). […]

[2] = test system: HCV replicon in HUH-7 cells; test: HCV replicon FRET assay; assay type: cell-based, HCV strain 1b; conditions: Hepatitis C virus, Huh-7, read-out: Activity Range (EC50)
From the text: An HCV replicon whole cell system was established as described by Lohmann V, Korner F, Koch J, Herian U, Theilmann L, Bartenschlager R., Science 285(5424): 110-3 (1999). This system enabled us to evaluate the effects of our HCV Protease compounds on HCV RNA replication. Briefly, using the HCV strain 1b sequence described in the Lohmann paper (Assession number: AJ238799), an HCV cDNA was synthesized by Operon Technologies, Inc. (Alameda, Calif.), and the full-length replicon was then assembled in plasmid pGem9zf(+) (Promega, Madison, Wis.) using standard molecular biology techniques. The replicon consists of (i) the HCV 5′ UTR fused to the first 12 amino acids of the capsid protein, (ii) the neomycin phosphotransferase gene (neo), (iii) the IRES from encephalomyocarditis virus (EMCV), and (iv) HCV NS3 to NS5B genes and the HCV 3′ UTR. Plasmid DNAs were linearized with ScaI and RNA transcripts were synthesized in vitro using the T7 MegaScript transcription kit (Ambion, Austin, Tex.) according to manufacturer's directions. In vitro transcripts of the cDNA were transfected into the human hepatoma cell line, HUH-7. […] Resulting cell lines were characterized for positive and negative strand RNA production and protein production over time.
The HCV replicon FRET assay was developed to monitor the inhibitory effects of compounds described in the disclosure on HCV viral replication. HUH-7 cells, constitutively expressing the HCV replicon, were grown in Dulbecco's Modified Eagle Media (DMEM) (Gibco-BRL) containing 10% Fetal calf serum (FCS) (Sigma) and 1 mg/ml G418 (Gibco-BRL). Cells were seeded the night before (1.5×10^4 cells/well) in 96-well tissue-culture sterile plates. Compound and no compound controls were prepared in DMEM containing 4% FCS, 1:100 Penicillin/Streptomysin (Gibco-BRL), 1:100 L-glutamine and 5% DMSO in the dilution plate (0.5% DMSO final concentration in the assay). Compound/DMSO mixes were added to the cells and incubated for 4 days at 37° C. After 4 days, cells were first assessed for cytotoxicity using alamar Blue (Trek Diagnotstic Systems) for a CC50 reading. The toxicity of compound (CC50) was determined by adding 1/10th volume of alamar Blue to the media incubating the cells. After 4 h, the fluorescence signal from each well was read, with an excitation wavelength at 530 nm and an emission wavelength of 580 nm, using the Cytofluor Series 4000 (Perspective Biosystems). Plates were then rinsed thoroughly with Phosphate-Buffered Saline (PBS) (3 times 150 μl). The cells were lysed with 25 μl of a lysis assay reagent containing an HCV protease substrate (5× cell Luciferase cell culture lysis reagent (Promega #E153A) diluted to 1× with distilled water, NaCl added to 150 mM final, the FRET peptide substrate (as described for the enzyme assay above) diluted to 10 μM final from a 2 mM stock in 100% DMSO. The plate was then placed into the Cytofluor 4000 instrument which had been set to 340 nm excitation/490 nm emission, automatic mode for 21 cycles and the plate read in a kinetic mode. EC50 determinations were carried out as described for the IC50 determinations.

SMILES	pIC50 [1]	pEC50 [2]
C=C[C@@H]1C[C@]1(NC(=O)[C@@H]1C[C@@H](OC(=O)c2ccc(OC)cc2)CN1C(=O)[C@@H](NC(=O)OC(C)(C)C)C(C)(C)C)C(=O)NS(=O)(=O)C1CC1 [Compound 3]	7.30 to 9.00	6.70 to 7.60
C=C[C@@H]1C[C@]1(NC(=O)[C@@H]1C[C@@H](OC(=O)c2ccc3c(c2)CCO3)CN1C(=O)[C@@H](NC(=O)OC(C)(C)C)C(C)(C)C)C(=O)NS(=O)(=O)C1CC1 [Compound 7]	7.30 to 9.00	6.70 to 7.60
C=C[C@@H]1C[C@]1(NC(=O)[C@@H]1C[C@@H](OC(=O)c2ccc3sccc3c2)CN1C(=O)[C@@H](NC(=O)OC(C)(C)C)C(C)(C)C)C(=O)NS(=O)(=O)C1CC1 [Compound 6]	7.30 to 9.00	6.70 to 7.60
C=C[C@@H]1C[C@]1(NC(=O)[C@@H]1C[C@@H](OC(=O)c2ccc(-c3ccccc3)cc2)CN1C(=O)[C@@H](NC(=O)OC(C)(C)C)C(C)(C)C)C(=O)NS(=O)(=O)C1CC1 [Compound 4]	7.30 to 9.00	6.00 to 6.70
C=C[C@@H]1C[C@]1(NC(=O)[C@@H]1C[C@@H](OC(=O)c2ccc(F)cc2)CN1C(=O)[C@@H](NC(=O)OC(C)(C)C)C(C)(C)C)C(=O)NS(=O)(=O)C1CC1 [Compound 2]	7.30 to 9.00	6.00 to 6.70
C=C[C@@H]1C[C@]1(NC(=O)[C@@H]1C[C@@H](OC(=O)c2ccc3ncccc3c2)CN1C(=O)[C@@H](NC(=O)OC(C)(C)C)C(C)(C)C)C(=O)NS(=O)(=O)C1CC1 [Compound 5]	7.30 to 9.00	6.70 to 7.60
